#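 GI50: concentration for 50% inhibition of growth. The concentration for full growth arrest is given as TGI.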
# Columns and labels:
# Experiment in all cases: inhibition of tumour cell growth, NCI panel, 384-well format
# [1] = tested on: HOP-62 NSCLC
# [2] = tested on: EKVX NSCLC
# [3] = tested on: HT29 colon
# [4] = tested on: SNB-75 CNS
# [5] = tested on: IGROV1 ovarian
# [6] = tested on: 786-0 renal
# [7] = tested on: OVCAR-3 ovarian
# [8] = tested on: SK-MEL-2 melanoma
# [9] = tested on: HCC-2998 colon
# [10] = tested on: NCI/ADR-RES ovarian
# [11] = tested on: CAKI-1 renal
# [12] = tested on: ACHN renal
# [13] = tested on: MDA-MB-435 melanoma
# [14] = tested on: UACC-62 melanoma
# [15] = tested on: NCI-H226 lung
# [16] = tested on: MALME-3M melanoma
# [17] = tested on: RXF 393 renal
# [18] = tested on: NCI-H322M lung
# [19] = tested on: NCI-H23 lung
# [20] = tested on: SN12C renal
# [21] = tested on: RPMI-8226 leukemia
# [22] = tested on: SR leukemia
# [23] = tested on: HS 578T breast
# [24] = tested on: HL-60(TB) leukemia
# [25] = tested on: OVCAR-8 ovarian
# [26] = tested on: OVCAR-5 ovarian
# [27] = tested on: A549 NSCLC
# [28] = tested on: OVCAR-4 ovarian
# [29] = tested on: HCT-15 colon
# [30] = tested on: SNB-19 CNS
# [31] = tested on: BT-549 breast
# [32] = tested on: MOLT-4 leukemia
# [33] = tested on: DU-145 prostate
# [34] = tested on: PC-3 prostate
# [35] = tested on: SF-539 CNS
# [36] = tested on: SK-OV-3 ovarian
# [37] = tested on: NCI-H522 lung
# [38] = tested on: SK-MEL-28 melanoma
# [39] = tested on: SF-295 CNS
# [40] = tested on: TK-10 renal
# [41] = tested on: A498 renal
# [42] = tested on: HOP-92 NSCLC
# [43] = tested on: MCF7 breast
# [44] = tested on: T-47D breast
# [45] = tested on: SF-268 CNS
# [46] = tested on: CCRF-CEM leukemia
# [47] = tested on: SK-MEL-5 melanoma
# [48] = tested on: M14 melanoma
# [49] = tested on: MDA-MB-468 breast
# [50] = tested on: MDA-MB-231 breast
# [51] = tested on: NCI-H460 NSCLC
# [52] = tested on: UACC-257 melanoma
# [53] = tested on: COLO 205 colon
# [54] = tested on: U251 glioblastoma
# [55] = tested on: SW-620 colon
# [56] = tested on: KM12 colon
smiles,measurement,setting,value
COc1cccc(-c2cc(=O)c3ccccc3o2)c1N,GI50,[1],33.1 µM
same,TGI,[1],> 100 µM
same,GI50,[2],37.1 µM
same,TGI,[2],> 100 µM
same,GI50,[3],13.2 µM
same,TGI,[3],> 100 µM
same,GI50,[4],41.1 µM
same,TGI,[4],> 100 µM
same,GI50,[5],30.7 µM
same,TGI,[5],> 100 µM
same,GI50,[6],> 100 µM
same,TGI,[6],> 100 µM
same,GI50,[7],65 µM
same,TGI,[7],> 100 µM
same,GI50,[8],27.3 µM
same,TGI,[8],55.7 µM
same,GI50,[9],13.8 µM
same,TGI,[9],58 µM
same,GI50,[10],25.1 µM
same,TGI,[10],74.7 µM
same,GI50,[11],> 100 µM
same,TGI,[11],> 100 µM
same,GI50,[12],> 100 µM
same,TGI,[12],> 100 µM
same,GI50,[13],10.4 µM
same,TGI,[13],> 100 µM
same,GI50,[14],4.95 µM
same,TGI,[14],28.9 µM
same,GI50,[15],25 µM
same,TGI,[15],70.2 µM
same,GI50,[16],2250 nM
same,TGI,[16],5.26 µM
same,GI50,[17],46.4 µM
same,TGI,[17],> 100 µM
same,GI50,[18],> 100 µM
same,TGI,[18],> 100 µM
same,GI50,[19],23.9 µM
same,TGI,[19],99.5 µM
same,GI50,[20],72.4 µM
same,TGI,[20],> 100 µM
same,GI50,[21],34.4 µM
same,TGI,[21],> 100 µM
same,GI50,[22],31.3 µM
same,TGI,[22],96.5 µM
same,GI50,[23],47.7 µM
same,TGI,[23],> 100 µM
same,GI50,[24],2790 nM
same,TGI,[24],21.2 µM
same,GI50,[25],38 µM
same,TGI,[25],> 100 µM
same,GI50,[26],43.1 µM
same,TGI,[26],> 100 µM
same,GI50,[27],> 100 µM
same,TGI,[27],> 100 µM
same,GI50,[28],28.1 µM
same,TGI,[28],> 100 µM
same,GI50,[29],91.8 µM
same,TGI,[29],> 100 µM
same,GI50,[30],> 100 µM
same,TGI,[30],> 100 µM
same,GI50,[31],77.3 µM
same,TGI,[31],> 100 µM
same,GI50,[32],25.9 µM
same,TGI,[32],66.5 µM
same,GI50,[33],54.9 µM
same,TGI,[33],> 100 µM
same,GI50,[34],> 100 µM
same,TGI,[34],> 100 µM
same,GI50,[35],> 100 µM
same,TGI,[35],> 100 µM
same,GI50,[36],79.7 µM
same,TGI,[36],> 100 µM
same,GI50,[37],30 µM
same,TGI,[37],> 100 µM
same,GI50,[38],4.03 µM
same,TGI,[38],9.78 µM
same,GI50,[39],> 100 µM
same,TGI,[39],> 100 µM
same,GI50,[40],> 100 µM
same,TGI,[40],> 100 µM
same,GI50,[41],49.7 µM
same,TGI,[41],> 100 µM
same,GI50,[42],56.1 µM
same,TGI,[42],> 100 µM
same,GI50,[43],88.1 µM
same,TGI,[43],> 100 µM
same,GI50,[44],59.3 µM
same,TGI,[44],> 100 µM
same,GI50,[45],> 100 µM
same,TGI,[45],> 100 µM
same,GI50,[46],23.1 µM
same,TGI,[46],67.6 µM
same,GI50,[47],10.8 µM
same,TGI,[47],37.9 µM
same,GI50,[48],3.91 µM
same,TGI,[48],20 µM
same,GI50,[49],278 nM
same,TGI,[49],844 nM
same,GI50,[50],40.4 µM
same,TGI,[50],> 100 µM
same,GI50,[51],66.1 µM
same,TGI,[51],> 100 µM
same,GI50,[52],5.54 µM
same,TGI,[52],37.2 µM
same,GI50,[53],3.97 µM
same,TGI,[53],10.8 µM
same,GI50,[54],97.2 µM
same,TGI,[54],> 100 µM
same,GI50,[55],18.8 µM
same,TGI,[55],> 100 µM
same,GI50,[56],40.7 µM
same,TGI,[56],> 100 µM
